System: Streptococcus mutans biofilm
Assay: Biofilm disruption test (modified MBEC assay)
Assay type: cell-based, Streptococcus mutans (ATCC 25175)
Excerpt: In some embodiments, disclosed compositions can prevent, inhibit, disrupt, disperse, reduce the formation or maintenance of a biofilm in an area contacted with the composition. In some embodiments, a composition can prevent, inhibit, disrupt, disperse, reduce the formation or maintenance of a biofilm in a mouth of a user where the composition was applied to the mouth when compared to a mouth without the composition applied thereto. […] Preventing, inhibiting, disrupting, dispersing, reducing, controlling, or some combination thereof the formation or maintenance of biofilms can be measured using a modified version of the MBEC assay (described in ASTM E2799), which measures disruption of Streptococcus mutans biofilms grown on special pegs in a microtiter plate. […] The biofilm remaining on each peg following treatment is quantified by measuring the amount of fluorescently labeled bacteria that eluted from the pegs at the end of the treatment cycles (see example). […] Decreasing plaque buildup can be measured by a variety of methods in vivo including for example plaque scoring, dyeing of plaque, etc.
This method utilizes the high throughput MBEC assay system (Innovotech, Calgary, AB Canada). The method evaluates efficacy of a treatment in disrupting biofilm by quantifying the amount of fluorescent-labeled biofilm remaining on MBEC inoculator pegs after exposure to relevant treatment conditions. […]

With `N=C(NCCCCCCNC(=N)NC(=N)Nc1ccc(Cl)cc1)NC(=N)Nc1ccc(Cl)cc1.O=C(O)[C@H](O)[C@@H](O)[C@H](O)[C@H](O)CO.O=C(O)[C@H](O)[C@@H](O)[C@H](O)[C@H](O)CO` [0.1% CHG, chlorhexidine gluconate] the “Normalized Relative Fluorescence (%)” value (normalized to PBS negative control in the same plate, low value = more biofilm disruption) was 3.8% and the “Fluorescence intensity of Alexafluor 488-labeled S. mutans biofilm matrix” value (two 1-minute treatment cycles, biofilm eluted from MBEC pegs, ex 488 nm, em 525 nm) was 1281 a.u.

From patent US11801231B2, “Oral compositions and methods of use” (3M INNOVATIVE PROPERTIES COMPANY, priority 2017, dated 2023)
